Values quoted from earlier work as cited in US10071054B2, “Econazole composition and methods of treatment therewith” (Exeltis USA Dermatology, Inc., priority 2010, dated 2018).

Key:
[1] = tested on: dermatophytes and yeasts; details: most strains of Epidermophyton floccosum, Microsporum audouinii, M. canis, M. gypseum, Trichophyton mentagrophytes, T. rubrum, T. tonsurans, Candida albicans, Malassezia furfur
[2] = Liao et al., Yao Xue Xue Bao 28 (1):22-7 (1993)

Row | SMILES | activity against dermatophytes and yeasts [1] | antifungal activity of stereoisomer [2]
1 | Clc1ccc(COC(Cn2ccnc2)c2ccc(Cl)cc2Cl)cc1 (centres unmarked) [Econazole nitrate] | shown activity | 
2 | Clc1ccc(CO[C@@H](Cn2ccnc2)c2ccc(Cl)cc2Cl)cc1 [(R)-(−)-econazole] |  | greater antifungal activity
